According to PubChem BioAssay AID1996:
Converted amounts (≈) assume the structure as drawn.

details: buffer; pH 7.4; 200.0 µM

Row | SMILES | solubility kinetic [µg/mL]
1 | CC1(c2cccc(Br)c2)NC(=O)NC1=O (configuration not stated) | > 40.4
2 | CC(C)c1nc(Cl)c(C#N)c2c1CCC2 | 4.3 (≈ 19.5 µM)
3 | Cc1ccccc1NC(=O)Cc1cccc(C(F)(F)F)c1 | 5.3 (≈ 18.1 µM)
4 | O=c1oc(/C=C/c2ccccc2)nc2ccccc12 | 0.7 (≈ 2.81 µM)
5 | CCC(C)[C@H](NC(=O)N1CCC(Cc2ccccc2)CC1)C(=O)O (some centres not stated) | > 49.9
6 | O=C(CN1c2cccc3cccc(c23)S1(=O)=O)Nc1ccccc1 | 0.4 (≈ 1.18 µM)
7 | O=C(O)c1ccc(-c2nc3scc(-c4ccccc4)c3c(=O)[nH]2)cc1 | > 52.3
8 | Cc1cccc(C(=O)Nc2cccc(C(=O)Nc3cc(C)ccn3)c2)c1 | 0.9 (≈ 2.61 µM)
9 | CCN(C1CCS(=O)(=O)C1)S(=O)(=O)c1ccc2ccccc2c1 (configuration not stated) | 15.9 (≈ 45 µM)
10 | CC(C)(C)S(=O)(=O)/C(C#N)=C/Nc1ccccn1 | > 39.8
11 | Cc1cccnc1NC(=O)CNC(=O)c1ccccc1 | > 40.4
12 | CCOC(=O)C1=C[C@]2(CC)CCCN3CCc4c(n1c1ccccc41)[C@@H]32 | 35.5 (≈ 101 µM)
13 | Fc1ccc(-c2nnc(N3CCOCC3)c3ccccc23)cc1F | > 49.1
14 | Cc1ccc(S(=O)(=O)NCC(=O)Nc2ccc3c(c2)OCO3)cc1 | 49.4 (≈ 142 µM)
15 | COc1ccc(CNC(=O)c2csc3c2CCCC3)cc1 | 23.2 (≈ 77 µM)
16 | Cc1ccc(CONC(=O)c2ccc(Cl)cc2)cc1 | 2 (≈ 7.25 µM)
17 | c1cncc(C2Nc3cccc4cccc(c34)N2)c1 | > 37.1
18 | O=C1CC(Sc2ccc(Cl)cc2)C(=O)N1Cc1ccncc1 (configuration not stated) | 18.9 (≈ 56.8 µM)
19 | COCCNC(=O)c1cc(Sc2nnc(C)s2)nc2ccccc12 | > 54.1
20 | CCCN(CC(=O)Nc1ccccc1OC)C(=O)C1CCCC1 | > 47.8
21 | Cc1cc(C)c(C(=O)NNC(=O)c2cccnc2)c(C)c1 | > 42.5
22 | COc1ccccc1CC(=O)Nc1ncc(C)s1 | 8.4 (≈ 32 µM)
23 | O=C(O)c1cc(-c2cccc3ccccc23)nc2ccccc12 | > 44.9
24 | CCCn1cnc2c(oc3ccccc32)c1=O | > 34.2
25 | CCOC(=O)c1cc2c(=O)c3ccccc3oc2nc1C | 2.1 (≈ 7.41 µM)
26 | CN(C)/C(=N\O)c1c(Cl)cccc1Cl | > 35
27 | ONC(=Nc1ccccc1Cl)c1ccccc1Cl | > 42.2
28 | Cn1cccc1C1CCCN1CC(=O)Nc1ccc(C#N)c(Cl)c1 (configuration not stated) | 12.3 (≈ 35.9 µM)
29 | CCCC(=O)Nc1cc(C)cn(Cc2c(F)cccc2Cl)c1=O | 41.3 (≈ 123 µM)
30 | CNC(=O)c1cccc(NC(=O)C(C)c2ccc3cc(OC)ccc3c2)c1 (configuration not stated) | 9.2 (≈ 25.4 µM)

Second part, the molecule after the results:

Row | solubility kinetic [µg/mL] | SMILES
31 | > 48.4 | CN1C(=O)N(CC(=O)Nc2nccs2)C(=O)C12CCCCC2
32 | 2 (≈ 6 µM) | O=C(C(=O)N1CCN(c2ccccc2)CC1)c1c[nH]c2ccccc12
33 | > 42.8 | O=C(CSc1nccc(=O)[nH]1)c1c[nH]c2ccccc12
34 | 1.7 (≈ 6.43 µM) | Cn1c(CC(=O)Nc2ccccc2)cc2ccccc21
35 | 36.9 (≈ 132 µM) | CCCCC(=O)OCC(=O)c1[nH]c(C)c(C(C)=O)c1C
36 | 25.2 (≈ 78.2 µM) | O=C(Cn1cc(C(F)(F)F)ccc1=O)N1CCc2ccccc21
37 | 50.6 (≈ 147 µM) | COc1ccc(C(=O)NCCONC(=O)c2ccc(OC)cc2)cc1
38 | < 0.6 | Fc1ccc(OCc2cc(-c3ccccc3)no2)cc1
39 | 11.3 (≈ 36.6 µM) | Cc1nc(Cl)sc1C(=O)Nc1ccc(C(C)(C)C)cc1
40 | 3.7 (≈ 6.88 µM) | COc1ccc(NS(=O)(=O)c2cc(NC(=O)c3cc(F)c(F)cc3Cl)ccc2N2CCOCC2)cc1
41 | > 42.2 | CCOC(=O)c1cn(CC)c2cc(F)c(F)cc2c1=O
42 | 1.9 (≈ 6.12 µM) | CCOc1ccccc1NC(=O)CN1CCc2ccccc2C1
43 | 46.5 (≈ 130 µM) | Cc1cc(C(=O)CCC(=O)N2CCN(c3ccccc3)CC2)c(C)s1
44 | 43.2 (≈ 149 µM) | O=C1CSCC(=O)N1Cc1ccc(Cl)c(Cl)c1
45 | 1.7 (≈ 5.64 µM) | COc1ccccc1/C(C)=N/Oc1cc(N)cc([N+](=O)[O-])c1
46 | 0.6 (≈ 2.03 µM) | CCCCn1c(Nc2ccc(OC)cc2)nc2ccccc21
47 | > 46.2 | O=[N+]([O-])c1cccc(P(=O)(O)c2cccc([N+](=O)[O-])c2)c1
